# Patent US20200016086A1, “Nanoparticulate Materials and Methods for Targeting Iron Acquisition and Metabolism for Treating Bacterial Infections” (KENT STATE UNIVERSITY, priority 2017, published 2020)
# Tests used:
# [1] = type: physicochemical; conditions: buffer
# Experimental: The kinetics of Fe^2+ removal was followed by measuring the decrease of Fe^2+ ion concentration in aqueous solution where the dialysis bag containing the PVP-coated CaPB NPs was immersed. The simultaneous increase of Ca^2+ ion concentration in the same solution was also determined quantitatively by AAS to verify the kinetics (FIG. 5b).
# Staphylococcus aureus = assay: Bacterial cytotoxicity / growth inhibition of S. aureus in TSB medium (OD600); type: cell-based; conditions: concentration range of 10 μM to 400 μM
Compound,half-life T1/2 of Fe^2+ removal [1] [min],effect on growth of S. aureus (Staphylococcus aureus)
KCa[Fe^III(CN)6].n H2O [CaPB^III NPs],55,–
[Ca+2].[Cl-].[Cl-] [CaCl2],–,no effect on growth
